Laboratory results taken from patent US20130040898A1, “METHODS OF TREATMENT OF PATIENTS AT INCREASED RISK OF DEVELOPMENT OF ISCHEMIC EVENTS AND COMPOUNDS HEREOF” (priority 2010, published 2013).

Tests used:
[1] = depends on administration form and/or dosage; cited from earlier work
[2] = tested on: platelet aggregation in whole blood; test: Platelet aggregation in whole blood evaluated by Multiplate; format: cell-based
Description: FIG. 2: MultiPlate continuously records platelet aggregation. The increase of impedance by the attachment of platelets onto the Multiplate sensors is transformed to arbitrary aggregation units (AU) and plotted against time. […] Hereby, the effect on the endothelium of PGI2 can be employed in conjunction with treatment with antithrombotic agents such as Aspirin (ASA), platelet ADP—and a platelet inhibitor, such as GPIIb/IIIa receptor antagonists without increased risk of bleeding in this high-risk population. The term “Mulitplate” refers to an applied platelet aggregometer/platelet function analyzer utilizing the analysis of whole blood. Whole blood is the physiological environment where platelet function takes place in vivo, and the use of whole blood for in-vitro testing eliminates the need for time-consuming centrifugation steps required for Born aggregation measurements. The use of a small amount of whole blood (0.3 ml per test) allows the differentiated assessment of platelet function without drawing large amounts of blood (as required for analysis of Born aggregation) and facilitates the analysis of blood from children and also in experimental settings.

[3] = tested on: thrombus formation; test: Thrombus formation evaluated by viscoelastical haemostatic assay, thrombelastography (TEG); format: cell-based
Description: FIG. 1: Recording haemostatic activity using TEG assay. […] Hereby, the effect on the endothelium of PGI2 can be employed in conjunction with treatment with antithrombotic agents such as Aspirin (ASA), platelet ADP—and a platelet inhibitor, such as GPIIb/IIIa receptor antagonists without increased risk of bleeding in this high-risk population.

Row | SMILES | half time [1] [min] | effect on platelet aggregation in whole blood as evaluated by MULTIPLATE [2] | effect on thrombus formation as evaluated by viscoelastical haemostatic assays such as thrombelastography (TEG) [3]
1 | CC#CCC(C)[C@H](O)/C=C/[C@@H]1[C@H]2C/C(=C/CCCC(=O)O)C[C@H]2C[C@H]1O (some centres unmarked) [Iloprost] | 20 to 30 |  | 
2 | CSCCNc1nc(SCCC(F)(F)F)nc2c1ncn2[C@@H]1O[C@H](COP(=O)(O)OP(=O)(O)C(Cl)(Cl)P(=O)(O)O)[C@@H](O)[C@H]1O [cangrelor] | 3 to 5 |  | 
3 | CC#CCC(C)[C@H](O)/C=C/[C@@H]1[C@H]2c3cccc(CCCC(=O)O)c3O[C@H]2C[C@H]1O (mixture of isomers) [Beraprost] | 35 to 40 |  | 
4 | CCCCC[C@H](O)/C=C/[C@@H]1[C@H]2C/C(=C/CCCC(=O)O)O[C@H]2C[C@H]1O [prostacyclin] |  | does not affect platelet aggregation | does not impair thrombus formation
